Assay [1] concerns the target T1, α2 A adrenergic receptor (HT-29 cells) (Homo sapiens, UniProt P08913).
T1 construct: Membrane suspensions were prepared from human cerebral cortex (HCC), HT-29 cells (HT) and rat kidney cortex (RtKC); endogenous in cells; host or cells: HT-29 cells
As to the kind of experiment: Alpha2 A (HT-29 cells) receptor binding assay. The text has this:
(§1) The present compound or compounds may be included in a medication composition together with one or more other components to provide a medication composition which can be effectively administered. Such other components, e.g., carriers, anti-oxidants, bulking agents and the like, may be chosen from those materials which are conventional and well known in the art, e.g., as being included in medication compositions with α2 agonists. Whereas the effective dose of the compounds of the present compositions will depend on the nature of the host mammal and the specific diesease or condition treated it is anticipated that an effective daily dose of the compounds is in the range of 1 microgramm--10 mg per kg/body weight of the host. The ability of the compounds within the present invention to bind strongly and selectively to α2 adrenergic receptors in preference over α1 adrenergic receptors was confirmed by the following assay procedures which are generally recognized in the art to provide pertinent information with respect to the adrenergic activity of the compounds assayed: alpha1 (human brain) assay, alpha2 A (HT-29 cells) assay, and alpha2 B (rat kidney) assay. A description of these assay procedures is as follows.
(§2) Membrane preparation: Membrane suspensions were prepared from human cerebral cortex (HCC), HT-29 cells (HT) and rat kidney cortex (RtKC), as applicable. Tissues were homogenized in iced-cold buffer [250 mM sucrose, 5 mM tris, pH 7.4 (RtKC), or 50 mM Tris-HCl, 5 mM EDTA, pH 7.4 (HCC, HT)] with a Polytron homogenizer for 30 secs at setting #7, and centrifuged for 10 minutes at 300×g at 4° C. The supernatant was diluted 1:2 with 50 mM Tris-HCl buffer, pH 7.4 (RkCC, HCC) or pH 8.0 (HT) then centrifuged at 49,000×g for 15-20 minutes. The pellet fraction was washed 3 times (resuspended in Tris-HCl buffer and centrifuged for 15-20 minutes at 49,000×g). The pellet was then stored at -80° C. until the binding assay. Binding studies: The radioligands [^3 H] rauwolscine (specific activity 80 Ci/mmol) and [^3 H] prazosin (specific activity 77 Ci/mmol) were obtained from New England Nuclear, Boston, Mass. Frozen membrane pellet was resuspended in glycine glycine buffer, pH 7.6. Membrane protein homogenate (150-300 μg) was incubated with radioligand under the following conditions: 22° C., 30 minutes (HCC, HT), 0° C., 120 minutes (RtKC), in a final volume of 500 μl. At the end of the incubation period, the samples were filtered through glass fiber filters (Whatman GF/B) in a 96-well cell harvester and rapidly washed four times with 4 mls of iced-cold 50 mM Tris-HCl buffer. The filters were then oven dried and transferred to scintillation vials containing 5 mls of Beckman's Ready Protein^R scintillation cocktail for counting. Non-specific binding was defined by 10 μM phentolamine. Protein concentrations were determined with a protein assay kit from Bio Rad. Binding isotherms, equilibrium dissociation and affinity constants were analyzed and determined by the non-linear least squares curve fitting program AccuFit Competition/Saturation by Beckman.
(§3) As it will be recognized by those skilled in the art from the forogoing descriptions, the described assays are radioligand assays which measure the binding of the test compound to the respective α1 or α2 receptor. […]

In assay [2] the target is α1 adrenergic receptor (human cerebral cortex membranes). As to the kind of experiment: Alpha1 (human brain) receptor binding assay. The conditions noted are these: 22° C., 30 minutes, [3H] radioligand.
Source text: as §1
as §2, with “Membrane protein homogenate (150-300 μg) was incubated with radioligand under the following conditions: 22° C., 30 minutes (HCC, HT), 0° C., 120 minutes (RtKC), in a final volume of 500 μl. At the end of the incubation period, the samples were filtered through glass fiber filters (Whatman GF/B) in a 96-well cell harvester and rapidly washed four times with 4 mls of iced-cold 50 mM Tris-HCl buffer.” left out, “Non-specific binding was defined by 10 μM phentolamine.” left out, “Beckman. […]” for “Beckman.”

In assay [3] the target is T2, α2 B adrenergic receptor (rat kidney cortex membranes) (Rattus norvegicus, UniProt P19328).
T2 construct: Membrane suspensions were prepared from human cerebral cortex (HCC), HT-29 cells (HT) and rat kidney cortex (RtKC); from tissue; host or cells: rat kidney cortex membranes
T2 sequence (P19328 1-453): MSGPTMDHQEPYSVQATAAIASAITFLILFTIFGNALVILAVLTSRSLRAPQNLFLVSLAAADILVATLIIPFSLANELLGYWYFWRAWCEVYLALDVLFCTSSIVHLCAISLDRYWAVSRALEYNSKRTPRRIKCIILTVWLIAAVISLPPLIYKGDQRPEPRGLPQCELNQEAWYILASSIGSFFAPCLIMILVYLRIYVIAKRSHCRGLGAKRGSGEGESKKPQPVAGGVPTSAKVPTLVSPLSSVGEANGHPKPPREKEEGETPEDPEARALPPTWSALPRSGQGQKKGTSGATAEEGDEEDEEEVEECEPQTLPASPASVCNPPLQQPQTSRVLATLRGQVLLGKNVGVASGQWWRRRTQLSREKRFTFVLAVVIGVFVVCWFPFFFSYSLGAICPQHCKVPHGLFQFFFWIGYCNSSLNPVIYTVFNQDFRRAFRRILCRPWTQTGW
Put plainly: Alpha2 B (rat kidney) receptor binding assay.
Source text: as §1, §2, §3

Where two headings read alike, the source gives them in different places.

T1 sequence (P08913 whole entry): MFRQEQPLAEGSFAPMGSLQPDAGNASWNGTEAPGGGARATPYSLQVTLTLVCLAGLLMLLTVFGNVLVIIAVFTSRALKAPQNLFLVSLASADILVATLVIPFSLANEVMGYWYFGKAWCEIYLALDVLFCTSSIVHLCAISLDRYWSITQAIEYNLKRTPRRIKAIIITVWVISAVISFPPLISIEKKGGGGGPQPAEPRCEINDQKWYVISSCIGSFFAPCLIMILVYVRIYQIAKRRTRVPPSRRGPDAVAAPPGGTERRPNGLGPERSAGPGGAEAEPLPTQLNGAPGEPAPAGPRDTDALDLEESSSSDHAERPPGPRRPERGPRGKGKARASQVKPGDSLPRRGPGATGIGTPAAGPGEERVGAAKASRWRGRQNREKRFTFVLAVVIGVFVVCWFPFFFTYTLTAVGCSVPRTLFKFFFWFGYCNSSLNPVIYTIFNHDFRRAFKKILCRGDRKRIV

For the compound `Cc1ccccc1NC1=NCCO1` [Compound 1a], the inhibitory constant (Ki) (usually the equilibrium dissociation constant of an inhibitor or competing ligand from its target) in assay [1] came to 35.7 nM; in assay [2] it was 7400 nM; in assay [3] (rat kidney cortex membranes, 0° C., 120 minutes, [3H] radioligand, read-out: α2 B Ki), 208 nM.
With `Cc1cccc(NC2=NCCO2)c1C` [Compound 1, 2-[2,3-Dimethylphenylamino)-oxazoline], the Ki in assay [1] was 5.1 nM; in assay [2] it was 1210 nM; in assay [3], 8.5 nM.
Regarding `c1cc2c(c(NC3=NCCO3)c1)CCCC2` [Compound 2, 2-(5,6,7,8-tetrahydronaphthylamino)-oxazoline], the inhibitory constant (Ki) in assay [1] is 2.2 nM; in assay [3], 6.2 nM.
`Cc1cccc(N=C2NCCN2)c1C` [Compound 3, 2-(2,3-Dimethylphenylimino)-imidazolidine]: the Ki turned out to be 5.8 nM in assay [1], 434 nM in assay [2] and 1.5 nM in assay [3].
`Cc1ccccc1N=C1NCCN1` [Compound 3a, 2-(2-methylphenylimino)-imidazolidine]: the Ki stood at 7.5 nM in assay [1], 2170 nM in assay [2] and 25.3 nM in assay [3].
